The values that follow come from ChEMBL document CHEMBL3991601, “The target landscape of clinical kinase drugs” (Science, 2017).

Assay [1] addresses Serine/threonine-protein kinase N3 (Homo sapiens, UniProt Q6P5Z2).
In assay [2] the target is T1, Phosphatidylinositol 5-phosphate 4-kinase type-2 alpha (Homo sapiens, UniProt P48426).
T1 sequence (P48426 whole entry): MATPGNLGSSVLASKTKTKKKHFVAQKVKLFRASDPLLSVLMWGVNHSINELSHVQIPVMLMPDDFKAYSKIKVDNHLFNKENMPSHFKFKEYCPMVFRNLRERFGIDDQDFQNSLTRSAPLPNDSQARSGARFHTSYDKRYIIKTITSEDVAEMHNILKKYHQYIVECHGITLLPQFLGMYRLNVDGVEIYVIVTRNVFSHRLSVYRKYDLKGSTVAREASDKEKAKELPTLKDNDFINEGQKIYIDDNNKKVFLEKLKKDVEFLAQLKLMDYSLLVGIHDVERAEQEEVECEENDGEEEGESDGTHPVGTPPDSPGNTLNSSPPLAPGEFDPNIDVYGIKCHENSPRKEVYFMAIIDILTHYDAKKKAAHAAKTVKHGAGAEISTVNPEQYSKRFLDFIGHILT

The target of assay [3] is Phosphatidylethanolamine-binding protein 1 (Homo sapiens, UniProt P30086).
The target of assay [4] is T2, Adenine phosphoribosyltransferase (Homo sapiens, UniProt P07741).
T2 sequence (P07741 whole entry): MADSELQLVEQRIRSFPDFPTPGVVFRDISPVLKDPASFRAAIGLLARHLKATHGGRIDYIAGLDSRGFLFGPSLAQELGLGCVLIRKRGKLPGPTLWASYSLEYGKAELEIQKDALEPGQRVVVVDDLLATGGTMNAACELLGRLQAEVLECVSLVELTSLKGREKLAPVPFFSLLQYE

Assay [5] addresses Dual specificity protein kinase CLK2 (Homo sapiens, UniProt P49760).
Assay [6] concerns the target T3, Cyclin-dependent kinase-like 5 (Homo sapiens, UniProt O76039).
T3 sequence (O76039 whole entry): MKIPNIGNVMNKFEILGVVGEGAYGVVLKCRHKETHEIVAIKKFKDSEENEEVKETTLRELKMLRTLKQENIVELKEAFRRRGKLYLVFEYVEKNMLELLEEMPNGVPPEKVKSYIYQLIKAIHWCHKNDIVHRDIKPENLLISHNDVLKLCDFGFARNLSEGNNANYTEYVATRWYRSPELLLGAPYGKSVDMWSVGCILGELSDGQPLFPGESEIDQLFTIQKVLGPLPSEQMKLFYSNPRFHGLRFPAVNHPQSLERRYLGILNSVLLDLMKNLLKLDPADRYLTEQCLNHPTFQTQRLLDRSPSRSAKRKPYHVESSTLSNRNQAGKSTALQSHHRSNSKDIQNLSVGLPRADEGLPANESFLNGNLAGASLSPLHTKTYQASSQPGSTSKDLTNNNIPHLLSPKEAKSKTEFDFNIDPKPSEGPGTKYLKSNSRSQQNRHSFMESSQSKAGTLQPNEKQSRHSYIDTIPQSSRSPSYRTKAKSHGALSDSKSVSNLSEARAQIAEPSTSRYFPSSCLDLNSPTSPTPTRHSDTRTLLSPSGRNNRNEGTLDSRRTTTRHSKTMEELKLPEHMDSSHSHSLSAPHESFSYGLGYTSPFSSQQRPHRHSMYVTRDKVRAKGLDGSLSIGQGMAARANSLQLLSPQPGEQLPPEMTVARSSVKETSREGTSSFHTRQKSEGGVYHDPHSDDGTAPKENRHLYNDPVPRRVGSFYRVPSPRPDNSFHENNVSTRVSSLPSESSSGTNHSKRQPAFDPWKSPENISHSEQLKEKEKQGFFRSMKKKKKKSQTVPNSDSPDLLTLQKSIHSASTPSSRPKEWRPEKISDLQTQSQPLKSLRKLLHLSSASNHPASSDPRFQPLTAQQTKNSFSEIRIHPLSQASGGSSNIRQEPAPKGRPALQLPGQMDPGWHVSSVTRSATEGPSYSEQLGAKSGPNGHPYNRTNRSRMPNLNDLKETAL

In assay [7] the target is T4, Inhibitor of nuclear factor kappa-B kinase subunit epsilon (Homo sapiens, UniProt Q14164).
T4 sequence (Q14164 whole entry): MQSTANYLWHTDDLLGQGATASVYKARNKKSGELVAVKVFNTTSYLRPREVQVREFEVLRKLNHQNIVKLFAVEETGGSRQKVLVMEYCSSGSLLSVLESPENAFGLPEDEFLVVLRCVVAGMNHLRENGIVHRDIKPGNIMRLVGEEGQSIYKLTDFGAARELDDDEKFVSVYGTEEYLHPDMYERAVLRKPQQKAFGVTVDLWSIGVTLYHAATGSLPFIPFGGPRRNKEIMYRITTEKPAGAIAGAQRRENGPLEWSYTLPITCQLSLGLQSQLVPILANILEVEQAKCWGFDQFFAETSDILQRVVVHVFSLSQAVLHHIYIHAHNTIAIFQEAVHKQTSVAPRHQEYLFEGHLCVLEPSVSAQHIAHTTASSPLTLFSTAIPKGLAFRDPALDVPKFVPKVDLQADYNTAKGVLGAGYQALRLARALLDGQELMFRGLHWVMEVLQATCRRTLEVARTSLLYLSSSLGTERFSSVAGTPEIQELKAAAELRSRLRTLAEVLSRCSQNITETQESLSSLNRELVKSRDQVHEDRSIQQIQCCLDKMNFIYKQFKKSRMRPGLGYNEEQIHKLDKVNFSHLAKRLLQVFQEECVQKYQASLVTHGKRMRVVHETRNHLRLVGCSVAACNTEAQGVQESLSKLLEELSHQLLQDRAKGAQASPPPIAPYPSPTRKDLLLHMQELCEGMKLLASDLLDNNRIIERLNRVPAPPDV

Assay [8] has as its target Cyclin-dependent kinase 2 (Homo sapiens, UniProt P24941).
Assay [9] deals with Guanine nucleotide-binding protein G(i) subunit alpha-2 (Homo sapiens, UniProt P04899).
In assay [10] the target is Serine/threonine-protein kinase ATR (Homo sapiens, UniProt Q13535).

Molecules are shown by their SMILES. The source made the active and inactive calls. Bounds are passed on as bounds.
Note: in the data inactive means no Kd found up to 30 µM.

Dual specificity protein kinase CLK2, sequence (P49760 whole entry): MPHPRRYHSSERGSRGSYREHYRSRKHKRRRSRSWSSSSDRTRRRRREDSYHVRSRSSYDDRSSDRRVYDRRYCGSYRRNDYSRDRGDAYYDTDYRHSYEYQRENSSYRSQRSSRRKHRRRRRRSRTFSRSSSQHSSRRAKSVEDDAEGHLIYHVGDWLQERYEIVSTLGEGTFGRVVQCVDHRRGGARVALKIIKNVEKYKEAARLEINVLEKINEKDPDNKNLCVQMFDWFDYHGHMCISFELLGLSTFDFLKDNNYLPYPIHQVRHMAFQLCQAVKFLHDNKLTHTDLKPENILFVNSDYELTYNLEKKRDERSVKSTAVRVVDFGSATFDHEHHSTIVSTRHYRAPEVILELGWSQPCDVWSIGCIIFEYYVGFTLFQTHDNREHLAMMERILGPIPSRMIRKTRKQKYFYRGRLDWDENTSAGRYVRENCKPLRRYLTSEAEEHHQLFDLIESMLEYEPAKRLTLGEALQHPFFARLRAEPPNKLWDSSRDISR
Serine/threonine-protein kinase ATR, sequence (Q13535 whole entry): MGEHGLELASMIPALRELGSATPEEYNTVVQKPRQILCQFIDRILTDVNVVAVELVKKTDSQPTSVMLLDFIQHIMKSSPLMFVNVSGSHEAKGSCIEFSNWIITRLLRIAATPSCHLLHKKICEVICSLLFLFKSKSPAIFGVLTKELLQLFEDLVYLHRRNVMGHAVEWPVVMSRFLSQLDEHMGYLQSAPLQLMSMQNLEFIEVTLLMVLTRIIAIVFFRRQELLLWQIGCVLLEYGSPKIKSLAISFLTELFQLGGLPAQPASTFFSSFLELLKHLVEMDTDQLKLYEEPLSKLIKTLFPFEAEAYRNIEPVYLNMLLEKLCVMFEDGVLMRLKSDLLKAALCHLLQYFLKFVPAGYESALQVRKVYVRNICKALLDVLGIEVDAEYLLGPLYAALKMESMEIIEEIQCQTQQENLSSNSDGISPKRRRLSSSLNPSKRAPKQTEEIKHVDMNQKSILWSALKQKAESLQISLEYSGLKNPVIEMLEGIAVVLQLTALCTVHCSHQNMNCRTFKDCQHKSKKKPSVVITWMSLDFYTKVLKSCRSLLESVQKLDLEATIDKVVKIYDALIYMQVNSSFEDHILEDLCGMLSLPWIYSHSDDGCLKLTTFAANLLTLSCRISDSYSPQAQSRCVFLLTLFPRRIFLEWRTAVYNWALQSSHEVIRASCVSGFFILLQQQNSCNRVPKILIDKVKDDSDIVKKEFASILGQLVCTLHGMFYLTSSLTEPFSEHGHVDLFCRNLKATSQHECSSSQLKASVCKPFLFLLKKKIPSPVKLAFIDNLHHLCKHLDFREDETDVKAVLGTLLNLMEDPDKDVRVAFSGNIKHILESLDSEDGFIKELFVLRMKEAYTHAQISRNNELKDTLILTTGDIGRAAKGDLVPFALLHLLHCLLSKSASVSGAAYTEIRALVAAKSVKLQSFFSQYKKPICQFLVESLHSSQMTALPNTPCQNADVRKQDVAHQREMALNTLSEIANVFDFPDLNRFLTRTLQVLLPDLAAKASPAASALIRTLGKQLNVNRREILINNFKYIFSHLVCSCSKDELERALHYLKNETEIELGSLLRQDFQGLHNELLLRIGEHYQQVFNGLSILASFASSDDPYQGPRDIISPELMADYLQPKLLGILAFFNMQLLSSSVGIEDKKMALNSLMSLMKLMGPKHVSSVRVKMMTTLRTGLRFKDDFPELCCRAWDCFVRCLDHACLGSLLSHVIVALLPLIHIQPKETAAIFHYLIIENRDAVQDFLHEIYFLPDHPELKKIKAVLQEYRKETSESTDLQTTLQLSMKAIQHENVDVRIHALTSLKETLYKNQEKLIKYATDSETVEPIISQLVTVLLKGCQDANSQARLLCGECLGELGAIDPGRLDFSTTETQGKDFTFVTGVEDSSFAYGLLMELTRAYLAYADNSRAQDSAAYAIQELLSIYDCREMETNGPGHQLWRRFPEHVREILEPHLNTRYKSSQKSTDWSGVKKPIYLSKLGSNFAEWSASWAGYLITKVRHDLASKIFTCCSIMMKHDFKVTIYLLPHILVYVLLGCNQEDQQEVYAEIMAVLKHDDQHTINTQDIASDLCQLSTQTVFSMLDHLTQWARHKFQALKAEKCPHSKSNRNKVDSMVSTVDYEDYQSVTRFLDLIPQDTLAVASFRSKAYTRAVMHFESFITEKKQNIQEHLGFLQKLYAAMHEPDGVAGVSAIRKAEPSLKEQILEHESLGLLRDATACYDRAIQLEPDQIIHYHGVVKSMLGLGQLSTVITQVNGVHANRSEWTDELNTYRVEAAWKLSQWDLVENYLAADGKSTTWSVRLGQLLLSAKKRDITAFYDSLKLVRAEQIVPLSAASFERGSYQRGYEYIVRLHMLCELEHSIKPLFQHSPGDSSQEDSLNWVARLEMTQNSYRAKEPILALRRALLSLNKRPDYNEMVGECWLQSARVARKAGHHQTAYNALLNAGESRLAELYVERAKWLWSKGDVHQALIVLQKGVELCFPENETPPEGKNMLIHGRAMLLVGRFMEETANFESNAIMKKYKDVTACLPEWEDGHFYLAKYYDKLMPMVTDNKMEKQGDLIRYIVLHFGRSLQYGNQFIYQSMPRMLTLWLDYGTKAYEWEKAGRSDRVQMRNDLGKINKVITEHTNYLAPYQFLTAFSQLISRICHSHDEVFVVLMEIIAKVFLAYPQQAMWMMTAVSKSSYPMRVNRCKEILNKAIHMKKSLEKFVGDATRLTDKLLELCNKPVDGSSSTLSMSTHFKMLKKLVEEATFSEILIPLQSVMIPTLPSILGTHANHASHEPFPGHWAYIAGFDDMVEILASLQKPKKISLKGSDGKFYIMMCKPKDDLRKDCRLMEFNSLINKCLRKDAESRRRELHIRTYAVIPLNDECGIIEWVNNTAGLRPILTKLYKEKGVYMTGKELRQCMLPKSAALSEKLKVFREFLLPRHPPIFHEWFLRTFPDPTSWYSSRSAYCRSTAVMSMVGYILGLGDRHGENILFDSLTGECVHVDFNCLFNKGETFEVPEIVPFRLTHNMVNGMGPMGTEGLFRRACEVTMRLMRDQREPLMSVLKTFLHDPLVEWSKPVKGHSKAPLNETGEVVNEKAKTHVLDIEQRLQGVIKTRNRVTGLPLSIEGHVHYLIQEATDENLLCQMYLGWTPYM
Serine/threonine-protein kinase N3, sequence (Q6P5Z2 whole entry): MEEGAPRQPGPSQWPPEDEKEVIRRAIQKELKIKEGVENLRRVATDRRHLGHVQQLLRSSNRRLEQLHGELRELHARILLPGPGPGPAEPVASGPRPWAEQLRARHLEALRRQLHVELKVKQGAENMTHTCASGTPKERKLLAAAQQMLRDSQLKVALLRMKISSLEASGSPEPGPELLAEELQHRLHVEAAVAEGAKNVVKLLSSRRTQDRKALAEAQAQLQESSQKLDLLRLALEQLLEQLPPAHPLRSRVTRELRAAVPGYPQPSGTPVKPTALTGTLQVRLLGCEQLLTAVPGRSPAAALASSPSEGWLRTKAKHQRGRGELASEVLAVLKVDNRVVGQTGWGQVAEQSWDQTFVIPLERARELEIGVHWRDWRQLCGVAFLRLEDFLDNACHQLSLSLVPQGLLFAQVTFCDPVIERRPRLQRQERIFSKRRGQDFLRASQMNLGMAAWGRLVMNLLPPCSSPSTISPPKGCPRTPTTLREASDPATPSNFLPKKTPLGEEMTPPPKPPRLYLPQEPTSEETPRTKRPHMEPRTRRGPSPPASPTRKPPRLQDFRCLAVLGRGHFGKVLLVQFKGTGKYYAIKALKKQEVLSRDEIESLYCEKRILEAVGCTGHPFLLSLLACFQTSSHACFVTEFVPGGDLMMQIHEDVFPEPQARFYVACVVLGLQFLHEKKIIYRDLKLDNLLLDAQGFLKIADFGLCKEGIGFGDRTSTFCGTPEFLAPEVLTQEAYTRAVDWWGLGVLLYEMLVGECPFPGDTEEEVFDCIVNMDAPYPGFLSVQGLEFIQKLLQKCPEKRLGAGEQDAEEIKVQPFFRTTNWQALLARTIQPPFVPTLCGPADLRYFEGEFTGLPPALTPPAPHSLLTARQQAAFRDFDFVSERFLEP
Phosphatidylethanolamine-binding protein 1, sequence (P30086 whole entry): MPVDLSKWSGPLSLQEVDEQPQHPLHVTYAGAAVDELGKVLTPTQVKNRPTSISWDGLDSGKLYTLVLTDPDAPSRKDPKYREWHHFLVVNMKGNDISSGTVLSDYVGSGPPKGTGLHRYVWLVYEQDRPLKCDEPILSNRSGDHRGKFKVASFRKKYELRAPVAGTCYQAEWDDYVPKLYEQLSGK
Guanine nucleotide-binding protein G(i) subunit alpha-2, sequence (P04899 whole entry): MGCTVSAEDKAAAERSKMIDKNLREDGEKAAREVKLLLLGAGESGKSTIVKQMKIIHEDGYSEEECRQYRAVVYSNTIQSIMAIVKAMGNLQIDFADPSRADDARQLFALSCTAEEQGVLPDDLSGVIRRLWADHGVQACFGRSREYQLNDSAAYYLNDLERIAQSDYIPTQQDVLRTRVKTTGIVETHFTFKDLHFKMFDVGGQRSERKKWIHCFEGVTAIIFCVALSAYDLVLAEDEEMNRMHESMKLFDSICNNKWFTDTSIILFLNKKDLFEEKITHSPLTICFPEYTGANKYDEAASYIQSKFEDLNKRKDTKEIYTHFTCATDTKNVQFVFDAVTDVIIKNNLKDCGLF

For the compound `Cc1cn(-c2cc(NC(=O)c3ccc(C)c(Nc4nccc(-c5cccnc5)n4)c3)cc(C(F)(F)F)c2)cn1` [NILOTINIB], the Kd in assay [1], in assay [2] and in assay [3] was > 30 µM (inactive) throughout.

Regarding `CN1CC[C@@H](c2c(O)cc(O)c3c(=O)cc(-c4ccccc4Cl)oc23)[C@@H]1CO`, the Kd in [1] was > 30 µM (inactive); in [4], > 30 µM (inactive); in assay [5], > 30 µM (inactive); in [6], 0.024 µM; in assay [7], > 30 µM (inactive); in [8] it was > 30 µM (inactive). Also, the Kd in assay [3] was > 30 µM (inactive).

As for `C=CC(=O)N1CCC(Oc2cc3c(Nc4ccc(Cl)c(Cl)c4F)ncnc3cc2OC)CC1` [POZIOTINIB], the Kd in [6], in assay [7], in assay [9] and in [8] was > 30 µM (inactive) in each case.

For `Cc1c(F)cc(C(=O)NC2CC2)cc1-c1ccc(C(=O)NCC(C)(C)C)cn1` [LOSMAPIMOD], the Kd in assay [1], in assay [4], in assay [5], in assay [2], in [9] and in assay [8] was > 30 µM (inactive) in each case.

In the case of `Nc1nc(N)c2nc(-c3cccc(O)c3)c(-c3cccc(O)c3)nc2n1` [TG100-115], the Kd in assay [1] is > 30 µM (inactive); in [10] it was > 30 µM (inactive); in assay [2] it was 7.02 µM; in assay [9], > 30 µM (inactive).

On to `C[C@@H](c1ccc2nccn2c1)n1nnc2ncc(-c3cnn(C)c3)nc21` [SAVOLITINIB], for which the Kd in [4], in assay [5], in assay [10], in [7], in [2] and in assay [8] was > 30 µM (inactive) each time. For the same compound, the Kd in assay [3] was > 30 µM (inactive).

Take `CN1CCC(COc2cnc(-c3cccc(Cn4nc(-c5cccc(C#N)c5)ccc4=O)c3)nc2)CC1` [TEPOTINIB]: the Kd in assay [4], in assay [10], in assay [7], in assay [2], in [9] and in assay [3] was > 30 µM (inactive) in each case.

For `CCn1c(-c2nonc2N)nc2c(C#CC(C)(C)O)ncc(OC[C@H]3CCCNC3)c21` [GSK-690693], the Kd in [4] and in assay [3] was > 30 µM (inactive) throughout.

On to `Cn1ncc(Cl)c1-c1cc(C(=O)N[C@H](CN)Cc2cccc(F)c2)sc1Cl` [AFURESERTIB], for which the Kd in assay [9], in assay [8] and in assay [3] was > 30 µM (inactive) throughout.

Regarding `C1=C/COCc2cc(ccc2OCCN2CCCC2)Nc2nccc(n2)-c2cccc(c2)COC/1` [PACRITINIB], the Kd in assay [4] is > 30 µM (inactive); in assay [6] it was > 30 µM (inactive); in assay [7] it was 0.715 µM (active); in assay [8], > 30 µM (inactive); in assay [3], > 30 µM (inactive).

`Cn1cc(-c2ccc(F)c(C(F)(F)F)c2)nc1C1CCN(c2ncnc3[nH]ncc23)CC1` [LY-2584702]: the Kd in [4], in assay [6], in assay [7], in assay [2], in assay [9] and in assay [8] was > 30 µM (inactive) each time. Besides, in [3], the Kd was > 30 µM (inactive).

Turning to `CNC(=O)CN1CCC(Oc2cc3c(Nc4cccc(Cl)c4F)ncnc3cc2OC)CC1` [SAPITINIB], the Kd in assay [1], in [6], in assay [7], in assay [2], in assay [9] and in assay [8] was > 30 µM (inactive) each time.

A word on the Kd: it is the concentration at which binding is half-saturated.
